Publication PMC8078842 (PLoS Neglected Tropical Diseases, 2021)

What was measured:
Delta2glutamate receptor = conditions: Voltage independent; cited from earlier work
[1] = system: Corticotropin Releasing Factor, Non-selective; test: CNS side effect panel, [^125I]Tyr0-oCRF; assay type: binding; conditions: pentamidine 1.0E^-5 M
Sigma, Non-selective = test: CNS side effect panel, [^3H]DTG; assay type: binding; conditions: pentamidine 1.0E^-5 M
[2] = system: Trypanosoma brucei blood stream form trypomastigotes (T. b. brucei strain S427); test: Trypanocidal activity in vitro (Alamar Blue); assay type: cell-based
Opioid, Non-selective = test: CNS side effect panel, [^3H]Naloxone; assay type: binding
[3] = biological target: T1, Opioid, Orphanin, ORL1 (h) (Homo sapiens, UniProt P41146); test: CNS side effect panel, [^3H] Nociceptin; assay type: binding; conditions: pentamidine 1.0E^-5 M
T1 construct: purchased Perkin-Elmer Science Discovery Systems (NovaScreen), customised CNS screening panel

[4] = biological target: Oxidase, MAO-B, Peripheral (Rattus norvegicus, UniProt P19643); test: CNS side effect panel, [^14C]Phenylethylamine; assay type: biochemical
[5] = system: NMDA (Ionotropic) glutamate receptor; conditions: Voltage dependent; cited from earlier work
P-gp (human MDR1) = test: in vitro; conditions: dog
[6] = system: Nicotinic, Neuronal (a-BnTx insensitive); test: CNS side effect panel, [^3H]Epibatidine; assay type: binding; conditions: pentamidine 1.0E^-5 M
[7] = system: Potassium Channel, Ca2+ Act., VI; test: CNS side effect panel, [^125I]Apamin; assay type: binding; conditions: pentamidine 1.0E^-5 M
[8] = biological target: Imidazoline, I2 [central]; test: CNS side effect panel, [^3H]2-BFI; assay type: binding
[9] = system: Nitric Oxide, NOS (Neuronal-Binding); test: CNS side effect panel, [^3H]NOARG; conditions: pentamidine 1.0E^-5 M
[10] = read-out: % of bsf trypomastigotes inhibited

Oxidase, MAO-B, Peripheral, sequence (P19643 whole entry): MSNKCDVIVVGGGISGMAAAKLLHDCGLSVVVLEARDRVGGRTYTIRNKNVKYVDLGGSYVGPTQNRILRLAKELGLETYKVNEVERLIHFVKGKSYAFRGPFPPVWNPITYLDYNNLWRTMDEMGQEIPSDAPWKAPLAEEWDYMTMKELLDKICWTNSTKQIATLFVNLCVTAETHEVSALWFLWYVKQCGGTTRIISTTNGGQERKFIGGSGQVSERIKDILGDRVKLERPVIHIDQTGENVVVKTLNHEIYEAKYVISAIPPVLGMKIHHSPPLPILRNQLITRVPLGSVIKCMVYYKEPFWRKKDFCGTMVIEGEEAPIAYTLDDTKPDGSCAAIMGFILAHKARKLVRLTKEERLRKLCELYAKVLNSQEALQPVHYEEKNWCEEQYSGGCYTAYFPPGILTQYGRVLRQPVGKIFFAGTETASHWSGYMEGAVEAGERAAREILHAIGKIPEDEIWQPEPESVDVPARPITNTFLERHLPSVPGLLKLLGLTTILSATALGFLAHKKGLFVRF
T1 sequence (P41146 whole entry): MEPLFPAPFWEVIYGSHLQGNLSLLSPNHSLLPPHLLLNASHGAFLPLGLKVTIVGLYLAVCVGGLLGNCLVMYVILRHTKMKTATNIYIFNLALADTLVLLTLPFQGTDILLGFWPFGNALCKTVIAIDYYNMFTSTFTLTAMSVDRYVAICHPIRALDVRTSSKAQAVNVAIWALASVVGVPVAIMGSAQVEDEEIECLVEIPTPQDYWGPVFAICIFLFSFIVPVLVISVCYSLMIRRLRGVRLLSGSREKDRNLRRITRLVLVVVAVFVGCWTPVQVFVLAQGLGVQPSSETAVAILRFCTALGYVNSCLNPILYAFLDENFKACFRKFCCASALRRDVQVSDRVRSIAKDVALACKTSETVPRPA

## N=C(N)c1ccc(OCCCCCOc2ccc(C(=N)N)cc2)cc1 [Pentamidine, 1,5-bis-4ρ-amidinophenoxypentane]
Delta2glutamate receptor
  Affinity: 5 µM
[1]
  Percent Inhibition: 17.05%
Sigma, Non-selective
  Percent Inhibition: 6.50%
[2]; [10]
  inhibition at 5.7 pM: 4.1%
  inhibition at 17 pM: 35%
  inhibition at 51 pM: 65.3%
  inhibition at 0.3 µM: 97.4%
  inhibition at 1 µM: 98.3%
[2]; read-out: IC50 (± 95% CI) of pentamidine
  IC50: 0.0211 nM
Opioid, Non-selective; Opioid, concentration-response
  Ki: 1410 nM
Opioid, Non-selective; pentamidine 1.0E^-5 M
  Percent Inhibition: 76.00%
[3]
  Percent Inhibition: 36.62%
[4]; Monoamine oxidase B, concentration-response
  Ki: 181 nM
[4]; pentamidine 1.0E^-5 M
  Percent Inhibition: 99.99%
[5]
  Affinity: 0.2 µM
P-gp (human MDR1); MDCK-MDR1, pH 7.4, Papp B2A Replicate 1
  Papp B→A at 1 h, 10 µM: 0.336 ×10⁻⁶ cm/s
P-gp (human MDR1); MDCK-MDR1, pH 7.4, Papp B2A Replicate 2
  Papp B→A at 1 h, 10 µM: 0.357 ×10⁻⁶ cm/s
P-gp (human MDR1); MDCK-MDR1, pH 7.4, Papp basal to apical
  Papp B→A at 1 h, 20 µM: 0.418 ×10⁻⁶ cm/s
[6]
  Percent Inhibition: 10.87%
[7]
  Percent Inhibition: 2.07%
[8]; Imidazoline 1_2, concentration-response
  Ki: 1 nM
[8]; pentamidine 1.0E^-5 M
  Percent Inhibition: 101.03%
[9]
  Percent Inhibition: 12.98%
